Data: US20240285572A1 (priority 2023, published 2024)

Columns and labels:
[1] = test system: human patients having central serous chorioretinopathy (CSCR); test: Central macular thickness by OCT in CSCR patients given isosorbide dinitrate; format: in vivo
Method: The nitric-oxide releasing agent isosorbide dinitrate was given orally at 5 mg twice per day dosage for sublingual administration for 7 days for 7 human patients (CL, WZ, XC, LL, BZ, XZ, and LS) having central serous chorioretinopathy (CSCR). Average age of the patients is 41.6 years. 5 men and 2 women were enrolled in this study.

[2] = test system: retinal blood flow; conditions: oral; glaucoma patients and diabetics; Zurakowski 1998, Weigert 2008; cited from earlier work
[3] = test system: acute central retinal artery occlusion; conditions: sublingual route; cited from earlier work

Row | SMILES | Central macular OCT thickness, overall change ([1]; 7 human CSCR patients, 5 mg twice per day sublingual for 7 days, 7-10 days after treatment) | Subretinal fluid status after treatment ([1]; patient, eye OD) | Retinal blood flow [2] | Treatment outcome in acute central retinal artery occlusion [3]
1 | O=[N+]([O-])O[C@H]1CO[C@H]2[C@@H]1OC[C@H]2O[N+](=O)[O-] [isosorbide dinitrate, 1,4:3,6-dianhydro-2,5-di-O-nitro-D-glucitol] | generalized decrease | fluid resolved) | – | –
2 | O=[N+]([O-])OCC(CO[N+](=O)[O-])O[N+](=O)[O-] [nitroglycerin, 1,2,3-Tris(nitrooxy)propane] | – | – | retinal blood flow improves | variable success
